{"source": "patent US8450305B2", "about": "“Macrocyclic compounds useful as inhibitors of kinases and HSP90” (Universite de Strasbourg, priority 2006, dated 2013)", "key": {"HER-2": {"test_system": "HER-2", "details": "HER-2 degradation assay; cited from earlier work"}, "HCC1954 tumor cells": {"test_system": "HCC1954 tumor cells", "assay": "Cytotoxicity, MTS assay, HCC1954", "type": "cell-based", "details": "Homo sapiens, 72 hours", "method": "(§1) Tumor cells were grown as adherent monolayers at 37° C. in a humidified atmosphere (5% CO2, 95% air). The culture medium was RPMI 1640 containing 2 mM L-glutamine (Ref BE12-702F, Cambrex, Verviers, Belgium) and supplemented with 10% fetal bovine serum (Ref DE14-801E, Cambrex). For experimental use, the adherent tumour cells were detached from the culture flask by a 5-minute treatment with trypsin-versene (Ref O2-007E, Cambrex), diluted in Hanks' medium without calcium or magnesium (Ref BE10-543F, Cambrex) and neutralized by addition of complete culture medium. Before use, cells were counted in a hemocytometer and their viability were assessed by 0.25% trypan blue exclusion. Mycoplasma detection was performed using the MycoAlert® Mycoplasma Detection Kit (Ref LT07-318, Cambrex) in accordance with the manufacturer instructions. The MycoAlert®Assay is a selective biochemical test that exploits the activity of mycoplasmal enzymes. The viable mycoplasma are lysed and the enzymes react with the MycoAlert® substrate catalyzing the conversion of ADP to ATP. By measuring the level of ATP in a sample both before and after the addition of the MycoAlert® substrate a ratio can be obtained which is indicative of the presence or absence of mycoplasma. The mycoplasma test was assayed in duplicate from the culture supernatants of the cell lines and compared to negative and positive controls (MycoAlert® Assay Control Set, Ref LT07-518, Cambrex) (Internal Standard Operating Procedure No TEC-007/002). Both HCC1954 and SK-BR-3 tumour cells (5,000 cells per well) were plated in 96-well flat-bottom microtitration plates (Ref 167008, Nunc, Dutscher, Brumath, France) and incubated at 37° C. for 24 hours before treatment in 190 μl of drug-free culture medium supplemented with 10% FBS. Both HCC1954 and SK-BR-3 tumour cell lines were incubated for 72 hours with […], in ¼ dilution steps, of the test substances (ranging from […]) to be tested as well as paclitaxel (ranging from 10^−7 to 10^−12 M). The cells (190 μl) will be incubated in a 200 μl final volume of culture medium supplemented with 10% FBS containing test substances at 37° C. under 5% CO2. One experiment is performed, each concentration being issued from quadruplicate. Control cells are treated with corresponding vehicle alone. At the end of treatments, the cytotoxic activity is evaluated by a MTS assay. […] Like MTT, MTS is bioreduced by cells into a formazan product that is directly soluble in culture medium without processing, unlike MTT.\n(§2) At the end of the cells treatment, 40 μl of a 0.22 μm filtered freshly combined solution of MTS (20 ml at 2 mg/ml, Ref G1111A, Promega, Charbonnières, France) and PMS (1 ml at 0.92 mg/ml, Ref P9625, Sigma) in Dulbecco's Phosphate Buffered Saline (DPBS, Ref 17-513F, Cambrex), were added in each well. Culture plates were incubated for 2 h at 37° C. Absorbency (OD) will be measured at 490 nm in each well using VICTOR^3™ 1420 multilabeled counter (Wallac, PerkinElmer, Courtaboeuf, France)."}, "SK-BR-3 tumor cells": {"test_system": "SK-BR-3 tumor cells", "assay": "Cytotoxicity, MTS assay, SK-BR-3", "type": "cell-based", "details": "Homo sapiens, 72 hours", "method": "as §1, §2"}, "ErbB2": {"test_system": "ErbB2", "assay": "Degradation of HSP90 client protein ErbB2 in SK-BR3, Western blotting", "type": "cell-based", "details": "Homo sapiens; for EC50: read-out: EC50, degradation of ErbB2", "text": "Thus, after 18 hrs treatment with the compounds, the whole cell protein lysates were obtained, protein concentrations were normalized and the concentration of ErbB2 was quantified by Western blotting (C. Chavany et al J. Biol. Chem. 271:4974-4977 (1996))."}, "HCC1954 cells": {"test_system": "HCC1954 cells", "assay": "Antitumor activity, HCC1954 induced tumors in CB17/SCID mice", "type": "in vivo", "method": "The compounds of the invention were evaluated for antitumor activity in mice. Tumors were induced […] in healthy CB17/SCID mice by injecting HCC1954 cells into the right flank of 70 mice. Once the induced tumors were an average size of […], the mice were treated with compound a2-1 at 25 mg/kg, 50 mg/kg and 100 mg/kg. Controls of vehicle alone and Herceptin® at 10 mg/kg were utilized."}, "[1]": {"assay": "Maximum tolerated dose in healthy CB17/SCID mice", "type": "in vivo", "method": "Three healthy CB17/SCID mice were treated with compound 2a-1 at 25 mg/kg, 50 mg/kg and 100 mg/kg once daily for five consecutive days."}, "panel of 24 kinase": {"test_system": "panel of 24 kinase", "assay": "Radiometric protein kinase assay (33PanQinase), panel of 24 kinases", "type": "biochemical, human", "details": "for inhibition in a panel of 24 kinase: at 10 μM", "text": "(§3) All protein kinases were expressed in Sf9 insect cells as human recombinant GST-fusion proteins or His-tagged proteins by means of the baculovirus expression system. Kinases were purified by affinity chromatography using either GSH-agarose (Sigma) or Ni-NTH-agarose (Qiagen). The purity of each kinase was checked by SDS-PAGE/silver staining and the identity of each kinase was verified by western blot analysis with kinase specific antibodies or by mass spectroscopy.\nA radiometric protein kinase assay (^33PanQinase® Activity Assay) was used for measuring the kinase activity of the 24 protein kinases.\n(§4) The assay for all enzymes contained 60 mM HEPES-NaOH, pH 7.5, 3 mM MgCl2, 3 mM MnCl2, 3 μM Na-orthovanadate, 1.2 mM DTT, 50 μg/ml PEG20000, 1 μM [γ-^33P]-ATP (approx. 5×10^05 cpm per well).\n(§5) The reaction cocktails were incubated at 30° C. for 80 minutes. The reaction was stopped with 50 μl of 2% (v/v) H3PO4, plates were aspirated and washed two times with 200 μl of 0.9% (w/v) NaCl or 200 μl H2O. Incorporation of ^33Pi was determined with a microplate scintillation counter (Microbeta Trilux, Wallac).\n(§6) The median value of the counts in column 1 (n=8) of each assay plate was defined as “low control”. This value reflects unspecific binding of radioactivity to the plate in the absence of a protein kinase but in the presence of the substrate. The median value of the counts in column 7 of each assay plate (n=8) was taken as the “high control”, i.e. full activity in the absence of any inhibitor. The difference between high and low control was taken as 100% activity.\n(§7) As part of the data evaluation the low control value from a particular plate was subtracted from the high control value as well as from all 80 “compound values” of the corresponding plate. The residual activity (in %) for each well of a particular plate was calculated by using the following formula: Res. Activity (%)=100×[(cpm of compound−low control)/(high control−low control)]"}, "VEGF-R2": {"target": "T1, VEGF-R2 (Homo sapiens, UniProt P35968)", "T1 construct": "host or cells: Sf9 insect cells (baculovirus)", "T1 sequence (P35968 20-1356)": "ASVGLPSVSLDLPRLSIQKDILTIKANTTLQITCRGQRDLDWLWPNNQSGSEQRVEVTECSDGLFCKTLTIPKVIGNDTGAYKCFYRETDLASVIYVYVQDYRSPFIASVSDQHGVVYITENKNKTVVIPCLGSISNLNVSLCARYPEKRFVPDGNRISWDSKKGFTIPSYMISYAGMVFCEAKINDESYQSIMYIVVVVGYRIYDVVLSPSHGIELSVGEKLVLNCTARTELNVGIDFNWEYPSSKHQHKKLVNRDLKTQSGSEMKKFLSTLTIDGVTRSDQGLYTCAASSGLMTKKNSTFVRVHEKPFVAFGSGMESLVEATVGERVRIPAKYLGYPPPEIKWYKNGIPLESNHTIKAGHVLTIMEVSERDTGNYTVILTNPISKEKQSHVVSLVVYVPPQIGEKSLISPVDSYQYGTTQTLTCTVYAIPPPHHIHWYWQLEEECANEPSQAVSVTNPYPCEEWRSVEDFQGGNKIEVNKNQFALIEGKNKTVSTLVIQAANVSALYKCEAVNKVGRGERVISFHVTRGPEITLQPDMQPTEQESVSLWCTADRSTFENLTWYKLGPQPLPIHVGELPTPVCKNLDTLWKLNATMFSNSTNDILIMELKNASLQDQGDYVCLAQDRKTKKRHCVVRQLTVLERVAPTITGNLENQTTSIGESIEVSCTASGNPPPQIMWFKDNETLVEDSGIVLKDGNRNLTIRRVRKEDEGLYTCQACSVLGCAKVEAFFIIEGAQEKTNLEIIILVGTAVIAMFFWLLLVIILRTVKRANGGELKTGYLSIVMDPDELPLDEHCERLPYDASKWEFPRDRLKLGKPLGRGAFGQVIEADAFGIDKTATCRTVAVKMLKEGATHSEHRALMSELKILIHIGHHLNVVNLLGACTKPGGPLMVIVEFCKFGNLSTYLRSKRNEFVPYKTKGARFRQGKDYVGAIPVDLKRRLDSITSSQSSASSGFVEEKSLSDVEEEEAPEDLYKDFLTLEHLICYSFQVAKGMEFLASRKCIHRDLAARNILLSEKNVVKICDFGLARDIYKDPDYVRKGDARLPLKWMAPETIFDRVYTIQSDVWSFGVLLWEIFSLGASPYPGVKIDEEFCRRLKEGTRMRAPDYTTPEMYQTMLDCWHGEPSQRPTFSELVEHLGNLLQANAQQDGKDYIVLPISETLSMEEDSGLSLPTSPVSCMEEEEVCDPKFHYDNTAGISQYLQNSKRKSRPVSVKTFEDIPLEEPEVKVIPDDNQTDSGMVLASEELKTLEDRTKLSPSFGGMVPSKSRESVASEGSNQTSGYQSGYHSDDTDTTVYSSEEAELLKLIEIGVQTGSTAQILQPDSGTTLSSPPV", "assay": "Radiometric protein kinase assay, VEGF-R2", "type": "biochemical", "details": "1 μM ATP; read-out: Inhibitory activity (IC50:μM) VEGF-R2", "text": "as §3\nA radiometric protein kinase assay (^33PanQinase® Activity Assay) was used for measuring the kinase activity of the 24 protein kinases. All kinase assays were performed in 96-well FlashPlates™ from Perkin Elmer (Boston, Mass., USA) in a 50 μl reaction volume. The reaction cocktail was pipetted in 4 steps in the following order: • 20 μl of assay buffer • 5 μl of ATP solution (in H2O) • 5 μl of test compound (in 10% DMSO) • 10 μl of substrate/10 […] of enzyme solution (premixed)\nas §4\nFor the 24 kinase assays, the following amounts of enzyme and substrate were used per well:\nas §5, §6, §7\nThe residual activities for each concentration and the compound IC50 values were calculated using Quattro Workflow V2.1.0.0 (Quattro Research GmbH, Munich, Germany; www.quattro-research.com). The model used was “Sigmoidal response (variable slope)” with parameters “top” fixed at 100% and “bottom” at 0%."}, "tumor xenograft models": {"test_system": "tumor xenograft models", "details": "in vivo; cited from earlier work"}, "[2]": {"details": "cited from earlier work"}, "HSP90 [3]": {"target": "T2, HSP90 (Homo sapiens, UniProt P07900)", "assay": "HSP90 affinity, competition assay with geldanamycin", "type": "binding"}, "HSP90 [4]": {"target": "T2, HSP90", "details": "reported; read-out: inhibitor of HSP90; cited from earlier work"}}, "note": "Read-outs that look alike come from different tables or passages of the source.", "data": [{"smiles": "CCCCn1c(Cc2cc(OC)c(OC)c(OC)c2)nc2c(N)ncnc21", "note": "[PU3]", "values": [{"measurement": "IC50", "setting": "HER-2", "result": 40000, "unit": "nM"}]}, {"smiles": "O=C1OCC/C=C/CC/C=C/C(=N/OCC(=O)N2CCCCC2)Cc2c(Cl)c(O)cc(O)c21", "note": "[2a-1]", "values": [{"measurement": "EC50", "setting": "HCC1954 tumor cells", "result": 320, "unit": "nM"}, {"measurement": "EC50", "setting": "SK-BR-3 tumor cells", "result": 125, "unit": "nM"}, {"measurement": "EC50", "setting": "ErbB2; SK-BR-3, SK-BR3, 18 hrs treatment, Western blotting", "result": 26, "unit": "nM"}, {"measurement": "tumor size", "setting": "HCC1954 cells; 25 mg/kg, 50 mg/kg and 100 mg/kg", "result": "dose-dependent reduction in tumor size"}, {"measurement": "tumor size compared with Herceptin® at 10 mg/kg", "setting": "HCC1954 cells; even at the 25 mg/kg dose for three weeks", "result": "superior to those obtained in mice treated with Herceptin®"}, {"measurement": "re-growth of tumor after the last treatment", "setting": "HCC1954 cells; mouse, in vivo", "result": "did not occur for three to seven days"}, {"measurement": "weight loss", "setting": "[1]; 25 mg/kg once daily for five consecutive days", "result": "did not show any weight loss"}, {"measurement": "body weight loss", "setting": "[1]; 50 mg/kg once daily for five consecutive days", "result": "slight, but acceptable body weight loss"}, {"measurement": "body weight loss", "setting": "[1]; 100 mg/kg once daily for five consecutive days", "result": "slight, but acceptable body weight loss"}]}, {"smiles": "C[C@@H]1C[C@H]2O[C@@H]2/C=C\\C=C\\C(=O)Cc2c(Cl)c(O)cc(O)c2C(=O)O1", "note": "[Radicicol, radicicol]", "values": [{"measurement": "IC50 in panel of 24 kinase assays (blank cells; summary in words)", "setting": "panel of 24 kinase; a blank represents an IC50 > 50 μM", "result": "no inhibition"}, {"measurement": "inhibition in a panel of 24 kinase", "setting": "panel of 24 kinase", "result": "no significant activity"}, {"measurement": "IC50", "setting": "VEGF-R2", "result": 49, "unit": "µM"}, {"measurement": "IC50", "setting": "ErbB2; SK-BR-3, 18 h, read-out: IC50, degradation of ErbB2", "result": 289, "unit": "nM"}, {"measurement": "activity in tumor xenograft models", "setting": "tumor xenograft models", "result": "inactive"}, {"measurement": "water solubility", "setting": "[2]", "result": "poorly water-soluble"}]}, {"smiles": "O=C1OCC/C=C/CC/C=C/C(=N/OCC(=O)N2CCCCC2)Cc2cc(O)cc(O)c21", "note": "[2a-13]", "values": [{"measurement": "EC50", "setting": "HCC1954 tumor cells", "result": 220, "unit": "nM"}, {"measurement": "EC50", "setting": "SK-BR-3 tumor cells", "result": 120, "unit": "nM"}, {"measurement": "EC50", "setting": "ErbB2; SK-BR-3, 18 h", "result": 12, "unit": "nM"}]}, {"smiles": "C[C@@H]1CC2O[C@@H]2CC/C=C/C(=O)Cc2c(Cl)c(O)cc(O)c2C(=O)O1", "note": "(stereo partly shown) [pochonin A]", "values": [{"measurement": "IC50", "setting": "HSP90 [3]", "result": 90, "unit": "nM"}, {"measurement": "inhibition in a panel of 24 kinase", "setting": "panel of 24 kinase", "result": "no significant activity"}, {"measurement": "IC50", "setting": "HSP90 [4]", "result": 90, "unit": "nM"}]}]}
